Results as given in the METLIN SMRT retention time set (Domingo-Almenara et al. 2019).

experiment: gradient 5% acetonitrile 3 min, to 50% in 2 min, to 85% in 15 min, held 3 min, 100 µL/min; settings: column: Zorbax Extend-C18 2.1 x 50 mm; eluents: water / acetonitrile, 0.1% formic acid
Method in brief: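 Pure standards were run in mixtures of ~100 molecules by HPLC coupled to a quadrupole time-of-flight mass spectrometer. The column was a Zorbax Extend-C18 (2.1 × 50 mm, 1.8 μm) at 100 μL/min, with water and acetonitrile each containing 0.1% formic acid, in positive and negative ionization mode. Dead and dwell volumes were 40 μL and 900 μL. Retention time was taken from computationally picked adduct peaks, each manually inspected, with data collected over 3 months.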

Structure (SMILES) | RP-LC retention time
Cc1ccc(-n2ccc(=O)c(-c3nc(-c4cccc(C)c4)no3)n2)cc1 | 974 s
Cc1cccc(S(=O)(=O)Nc2ccc3c(c2)CCC(=O)N3)c1 | 689 s
CC(C)(C)C(O)CCNC(=O)Cc1cccs1 (stereo not drawn) | 673 s
O=C(N[C@@H]1CN(c2ncccn2)C[C@H]1CO)C1CC=CC1 | 567 s
CN(C)Cc1nc(-c2cn(C)c3ccccc23)no1 | 684 s
CCCCNC(=O)C1CCCN(C(=O)c2[nH]c(C)c(C(=O)OC)c2C)C1 (stereo not drawn) | 692 s
COc1ccc(OC)c(NC(=O)Cn2c(=O)n(-c3ccc(C)cc3)c(=O)c3c2cc(C)n3C)c1 | 908 s
COCC(C)(O)CNC(=O)c1ccsc1 (stereo not drawn) | 581 s
COc1ccc(-c2ncc(C(=O)Nc3ccc(OC)c(OC)c3)c(-c3ccncc3)n2)cc1 | 769 s
CCC(C)NC(=O)c1ccc2c(c1)Sc1ncccc1C(=O)N2CC (stereo not drawn) | 749 s
O=C(C1=CN(c2ccc3c(c2)OCCO3)c2cc(Cl)ccc2S1(=O)=O)N1CCCC1 | 838 s
CCOc1ccc(-c2ccc(=O)n(Cc3nc(-c4ccc(F)cc4)no3)n2)cc1 | 1090 s
COc1cc(-c2nc3ncccn3c2Nc2ccccc2)ccc1O | 633 s
C=CCc1cc(C)ccc1OCC(O)Cn1cnc2ccccc21 (stereo not drawn) | 630 s
CCOc1ccc(-c2nc(-c3ccc4ncn(CC)c4c3)no2)cc1 | 829 s
CCn1c(C2CCN(S(=O)(=O)c3cccc4nsnc34)C2)nc2cccnc21 (stereo not drawn) | 705 s
COCC1CN(Cc2ccc(OC(F)(F)F)cc2)CC12CCNCC2 (stereo not drawn) | 579 s
CC1CCN(c2ccc(NC(=O)CN3C(=O)CN(C)C(=O)c4ccccc43)cc2)CC1 | 671 s
CC(C)CCNC(=O)C1(C)Cn2nc(C(=O)NCc3ccc(F)cc3)cc2C(=O)N1C (stereo not drawn) | 727 s
c1ccc(CCCN2CCN(CCOC(c3ccccc3)c3ccccc3)CC2)cc1 | 874 s

Structure (SMILES) | RP-LC retention time
Cc1cccc(CNC(=O)CN2C(=O)CCc3cc(Br)ccc32)c1 | 889 s
CN1C(=O)C2(c3ccccc31)C(C(=O)Nc1c(F)c(F)c(F)c(F)c1F)CC1CCCN12 (stereo not drawn) | 653 s
CCCS(=O)(=O)c1nc2ccc(NS(=O)(=O)Cc3cc(F)cc(F)c3)cc2s1 | 938 s
Fc1cccc(-c2noc(-c3ccc(N4CCN(CCOc5ccc(Cl)cc5)CC4)nc3)n2)c1 | 920 s
O=c1n(Cc2cccc(C(F)(F)F)c2)nc2c(S(=O)(=O)N3CCCC3)cccn12 | 885 s
COC1C(=O)N(C2CCN(C(=O)c3cnccn3)CC2)C12CCOCC2 (stereo not drawn) | 555 s
O=C(NCCCN1CCC(N2CCCCC2)CC1)c1cc(=O)n2c(nc3ccccc32)s1 | 577 s
O=C(c1csc(S(=O)(=O)N2CCC(C(=O)N3CCOCC3)CC2)c1)N1CCCCCC1 | 718 s
Cc1cc(C(=O)Nc2nnc(-c3csc(C)n3)o2)c(C)o1 | 599 s
CC(C)Cc1ccc(S(=O)(=O)N2CCc3c(c(-c4nnc(-c5ccccc5)o4)nn3C)C2)cc1 | 1150 s
COc1cccc(C2Cn3nnc(-c4nc(-c5ccccc5C)no4)c3CO2)c1 (stereo not drawn) | 1180 s
CCCN(C)CC1(O)CCC2(CCN(C(=O)C3CCCC3)CC2)CC1 | 584 s
CCn1cc(-c2nc(CC(=O)Nc3ccc(Cl)cc3)cs2)c2cccnc21 | 996 s
COc1ccc(S(=O)(=O)N2[C@H]3CC[C@@H]2c2cnc(-c4ccccc4)nc2C3)cc1 | 1030 s
CCc1nn2c(CNS(=O)(=O)Cc3ccccc3F)c(-c3ccccc3)nc2s1 | 948 s
N#Cc1cc2c(nc1SCC(=O)Nc1nccs1)CCCCC2 | 871 s
CC(C)NC(=O)c1ccc(-c2nc3cc(NS(=O)(=O)CCc4ccccc4)ccc3n2C)cc1 | 694 s
COc1cccc(NC(=O)C2CCN(Cc3cnn(-c4ccccc4)c3-n3cccc3)CC2)c1 | 723 s
CCCNC(=O)C1CCN(Cc2cc3ccccc3n2Cc2ccccc2)CC1 | 704 s
O=C(NCc1nc(-c2ccc(-c3csc(C4CC4)n3)cc2)no1)c1ccco1 | 830 s

Structure (SMILES) | RP-LC retention time
Cc1c(CC(=O)N2CCC(C(N)=O)CC2)c(=O)oc2c(C)c3occ(C(C)(C)C)c3cc12 | 821 s
CC(NC(=O)c1cn(-c2ncccc2-c2nc(-c3ccccc3)no2)cn1)c1ccccc1 (stereo not drawn) | 966 s
CC(=O)N1c2ccc(S(=O)(=O)N3CCCCCC3)cc2CC1C(=O)NCc1ccccc1Cl (stereo not drawn) | 950 s
CN(C)C(=O)c1ccc2c(c1)nc(CN(C)C(=O)Nc1ccccc1Br)n2C | 618 s
CCCCN(C)c1ccc2nnc(CCc3nc(-c4cccc(C)c4)no3)n2n1 | 951 s
COc1cc([C@@H]2c3cc4c(cc3[C@H](O)[C@@H](CO)[C@@H]2C(=O)NCCC2=CCCCC2)OCO4)cc(OC)c1OC | 781 s
CCOc1ccc(NC(=O)CN2C(=O)c3ccccc3C2=O)c([N+](=O)[O-])c1 | 839 s
Cc1nc2c(ccc3nc(NC(=O)c4ccc(N5C(=O)CCC5=O)cc4)sc32)s1 | 717 s
COC(=O)C1C(=O)C2=C(CC1C)NC(C)=C(C(=O)OCCOC(C)C)C2c1ccccc1F (stereo not drawn) | 914 s
OC(COc1ccccc1Cl)Cn1c(C2CC2)nc2ccccc21 (stereo not drawn) | 693 s
COc1cc([C@@H]2c3cc4c(cc3[C@H](O)[C@@H](CO)[C@@H]2C(=O)N2CCCC2)OCO4)cc(OC)c1OC | 641 s
Cc1cc(NS(=O)(=O)c2ccc3c(c2)CCCC(=O)N3)ccc1Br | 774 s
O=C(Nc1ccc2c(c1)OCO2)C1CCCN(c2ncc(-c3ccccc3)cn2)C1 (stereo not drawn) | 1040 s
CCc1nn2c(CNC(=O)c3ccc(F)c(Cl)c3)c(-c3ccccc3)nc2s1 | 1020 s
COc1ccccc1NS(=O)(=O)c1cn(CC(C)C)c2ncccc12 | 979 s
CCCn1c(=O)sc2cc(S(=O)(=O)N3CCC(C(=O)Nc4ncccc4C)CC3)ccc21 | 660 s
O=C(CSc1cc(NCc2ccc(Cl)cc2)ncn1)Nc1ccc(F)cc1F | 988 s
CCCCc1nc(SCC(=O)Nc2nc(-c3ccc(Br)cc3)cs2)n[nH]1 | 1050 s

Now from value to compound:

RP-LC retention time | Structure (SMILES)
680 s | C=CCN1CCN(C(=O)c2cn(-c3ccc(-c4nc(C(C)(C)C)no4)cn3)cn2)CC1
927 s | CCOc1ccc(-c2nc(C3CC(=O)N(c4ccc(OC)cc4)C3)no2)cc1OCC (stereo not drawn)
898 s | COc1ccc(Cl)cc1NC(=O)Cn1ccc2ccc(-c3nnc(C)o3)cc21
681 s | Cc1cccc(NC(=O)N2CCN(Cc3cn(C)c4ccccc34)CC2)c1
958 s | O=C(Nc1cccc(C(F)(F)F)c1)C1CCCN(c2ncnc3c2nc2n3CCCCC2)C1 (stereo not drawn)
835 s | Cc1ccc(NC(=O)N2CCC(n3cnc4c(C)cccc4c3=O)CC2)c(C)c1
578 s | CC(C)N1CCN(C(=O)c2csc(N3CCN(c4ccccc4)CC3)n2)CC1
554 s | Cc1noc(C2CN(Cc3cc(Br)ccc3F)C2)n1
610 s | COCc1nncn1C1CN(C(=O)Cc2cc(OC)ccc2OC)C1
1130 s | COc1ccc2c(c1)Cc1sc(NC(=O)c3ccc(Br)cc3)nc1-2
798 s | COc1ccc(NC(=O)NC2CCN(c3ccc(F)c(C)c3)C2=O)cc1 (stereo not drawn)
588 s | Cc1nc(-c2ccc(NC(=O)N3CCN(c4ccccn4)CC3)cc2)no1
811 s | COCCOC1CCC12CCN(C(=O)c1cc(C)oc1C)CC2 (stereo not drawn)
1160 s | Cc1ccc(-c2nc(C3CC(=O)N(c4ccc(F)c(Cl)c4)C3)no2)cc1 (stereo not drawn)
1060 s | COc1cccc(-c2cc(C(=O)NCCC3=CCCCC3)n(C)n2)c1
812 s | CCc1ccc(C2=C(C)C(N3CCC(C(=O)NC(C)C)CC3)=NS2(=O)=O)cc1
678 s | COc1ccc(NC(=O)c2cn(-c3cc(N(C)C)ncn3)cn2)cc1OC
669 s | COCC(=O)N1CCCn2nc(-c3ccccc3)cc2C1
720 s | Cn1cc(CC(=O)N2CCN(c3ncccn3)CC2)c2ccccc21
593 s | COc1ccc(C(=O)N2CCn3c(C)nnc3C2)cc1F
846 s | COc1ccc(C2CC(=O)c3c([nH]c(C(=O)OCC4CCCO4)c3C)C2)cc1OC (stereo not drawn)
670 s | CC(C)N1CCN(c2ncccc2-c2nnc(-c3ccc(Cl)cc3)o2)CC1
714 s | Cc1ccc(NC(=O)Cn2nc3c(N4CCCCCC4)nccn3c2=O)c(C)c1
709 s | CCc1nncn1C1CCN(S(=O)(=O)c2cc(Cl)ccc2OC)CC1
808 s | O=C(Nc1ccc(OCC(=O)N2CCN(c3ccc(Cl)cc3)CC2)nc1)C1CC1
677 s | Cc1ccc(NC(=O)Cn2nc3n(c2=O)CCCC3)cc1F
846 s | CCN1c2ccc(F)cc2C(=O)NC12CCN(C(=O)Cc1ccccc1C)CC2
697 s | Cc1cc(-c2ccc(S(=O)(=O)N3CCN(c4ccccn4)CC3)c(C)c2)on1
910 s | CCOc1ccccc1NC(=O)C1CCN(S(C)(=O)=O)c2cc(Cl)ccc2O1 (stereo not drawn)
720 s | CCC1(C(=O)Nc2ccc(OC)c(F)c2)CCCCC(=O)N1 (stereo not drawn)
